Results published in patent US20250163010A1, “PROCESSES FOR THE PREPARATION OF N-(1-METHYLCYCLOPROPYL)-2-(3-PYRIDINYL)-2H-INDAZOLE-4-CARBOXAMIDE AND INTERMEDIATES THEREOF” (FMC CORPORATION, priority 2022, published 2025).

Experiments:
[1] = Form A and Form B interconversion (competitive) slurries; type: physicochemical
Experimental: Relative thermodynamic stabilities of anhydrous/non-solvated Forms A and B were studied at 2-8° C., room temperature (RT) and at 71-72° C. via interconversion (competitive) slurries. In these slurries, a given solvent system was pre-saturated with compound 092 (Form A+minor Form B) at the stated temperature, and a portion of the liquid phase was filtered into a mixture of solids containing relatively equal amounts of Form A and Form B. Interconversion slurries at 2-8° C. and RT were allowed to stir for 22 days, while slurries at 71-72° C. stirred for shorter duration (2-4 days). […] The results are reported in table 13 below where: liquid phase for each slurry was pre-saturated using as-received Form A+minor Form B; solvent ratios are v/v; water activity values were calculated using UNIFAC calculator at RT; and times and temperatures are approximate.

[2] = Stable polymorph form screen by slurry experiments; type: physicochemical; conditions: between 2° C. and 73° C.; conclusion from slurries
Experimental: Slurry experiments were conducted to identify the stable form at various conditions. In these experiments, saturated solutions in various solvents containing excess undissolved solids (starting with Form A+minor Form B) were stirred for extended durations. Slurries at room temperature (RT) and 2-8° C. were typically conducted for approximately 2 weeks, while slurries at 72-73° C. were stirred for a shorter duration (1 day) to minimize the potential for decomposition. […] The results are shown in the table 12 where the time and temperatures are approximate.

Row | Final form (XRPD Result) ([1]; competitive slurry in EtOH, 71-72° C., 2 d, relatively equal amounts of Form A and Form B) | Final form (XRPD Result) ([1]; competitive slurry in EtOH, RT, 22 d, relatively equal amounts of Form A and Form B) | Final form (XRPD Result) ([1]; competitive slurry in NMP/water 80:20 (aw 0.39), 2-8° C., 22 d, relatively equal amounts of Form A and Form B) | Final form (XRPD Result) ([1]; competitive slurry in NMP/water 80:20 (aw 0.39), 71-72° C., 2 d, analyzed damp) | Final form (XRPD Result) ([1]; competitive slurry in NMP/water 80:20 (aw 0.39), RT, 22 d, relatively equal amounts of Form A and Form B) | Relative stability of polymorph forms [2] | Relative thermodynamic stability of polymorph forms ([1]; between 2° C. and 72° C., conclusion from competitive slurries) | SMILES
1 | Form A | Form A | Form A | Form A | Form A | – | – | CC1(NC(=O)c2cccc3nn(-c4cccnc4)cc23)CC1 [Form A + Form B, N-(1-methylcyclopropyl)-2-(3-pyridinyl)-2H-indazole 4-carboxamide]
2 | – | – | – | – | – | more stable than Form B | thermodynamically stable form | CC1(NC(=O)c2cccc3nn(-c4cccnc4)cc23)CC1 [Form A, N-(1-methylcyclopropyl)-2-(3-pyridinyl)-2H-indazole 4-carboxamide]
